This is an account of results in PMC6879560, “Functional annotation of serine hydrolases in the asexual erythrocytic stage of Plasmodium falciparum” (Scientific Reports, 2019).

The test concerns the target T1, Prodrug activation and resistance esterase (PfPARE) (Plasmodium falciparum, UniProt Q8IBZ2).
T1 construct: gene PF3D7_0709700; native 37 kDa species in saponin-isolated parasite lysate; also confirmed with endogenous C-terminal YFP fusion
Briefly: gel-based competitive ABPP with TAMRA-FP in parasite lysate; identity confirmed by YFP-tag shift. The test is classed as biochemical.

As a reminder, the IC50 is the concentration that inhibits the measured activity by half.

T1 sequence (Q8IBZ2 entry or part of it): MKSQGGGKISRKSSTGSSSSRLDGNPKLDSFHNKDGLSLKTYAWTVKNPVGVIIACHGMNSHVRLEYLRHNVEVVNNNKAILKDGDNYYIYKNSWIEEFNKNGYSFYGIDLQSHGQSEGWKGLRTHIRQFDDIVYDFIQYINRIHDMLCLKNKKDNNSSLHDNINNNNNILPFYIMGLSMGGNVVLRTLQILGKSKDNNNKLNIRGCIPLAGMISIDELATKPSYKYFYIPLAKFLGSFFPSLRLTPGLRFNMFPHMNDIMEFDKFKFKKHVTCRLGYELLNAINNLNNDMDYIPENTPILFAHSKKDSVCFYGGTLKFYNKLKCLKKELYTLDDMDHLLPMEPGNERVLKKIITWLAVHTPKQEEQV

As for `O=C(OC(C(F)(F)F)C(F)(F)F)N1CCN(Cc2cccc(Oc3ccccc3)c2)CC1` [JW642], the IC50 was determined as 2.5 ± 0.6 nM.
